Test results from patent US20160083391A1, “TRICYCLIC PIPERAZINE DERIVATIVE” (Sunovion Pharmaceuticals Inc., priority 2014, published 2016).

test system: PDE1; experiment: In vitro HTRF PDE1 inhibition assay; assay type: biochemical; details: HTRF cGMP assay, 100 nM cyclic GMP, PDE (1A3, 1B or 1C) with calmodulin, 45 minutes at 37° C.; isoform of the tabulated values not stated
Outline: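 HTRF cGMP competition assay: PDE1A3, 1B or 1C with calmodulin acting on 100 nM cGMP in 1% DMSO, pH 7.4 buffer with Ca2+ and Mg2+, 45 min at 37 °C. Remaining cGMP detected with d2-cGMP and anti-cGMP cryptate (665/615 nm); IC50 reported as banded categories.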

`CC(C)n1ncc2c(=O)n3c(nc21)CN(c1ccccc1)CC3` [Compound I-55, 1-Isopropyl-8-phenyl-6,7,8,9-tetrahydropyrazino[1,2-a]pyrazolo[3,4-d]pyrimidin-4(1H)-one] and `CC(C)n1ncc2c(=O)n3c(nc21)CN(c1ccccc1Cl)CC3` [Compound I-85, 8-(2-Chlorophenyl)-1-isopropyl-6,7,8,9-tetrahydropyrazino[1,2-a]pyrazolo[3,4-d]pyrimidin-4(1H)-one] fall in the same range of IC50: 1 to 10 µM for the first, 1 to 10 µM for the second.

Compared with `CC(C)CN1CCn2c(nc3c(cnn3C(C)C)c2=O)C1` [Compound I-57, 8-Isobutyl-1-isopropyl-6,7,8,9-tetrahydropyrazino[1,2-a]pyrazolo[3,4-d]pyrimidin-4(1H)-one], `CC(C)n1ncc2c(=O)n3c(nc21)CN(Cc1ccccc1Cl)CC3` [Compound I-67, 8-(2-Chlorobenzyl)-1-isopropyl-6,7,8,9-tetrahydropyrazino[1,2-a]pyrazolo[3,4-d]pyrimidin-4(1H)-one] is lower in IC50: > 10 µM for the first, < 1 µM for the second. The second is the more potent here.

First: O=c1c2c(Nc3ccccc3)n(Cc3ccccc3)nc2nc2n1CCNC2 [Compound I-59, 2-Benzyl-3-(phenylamino)-6,7,8,9-tetrahydropyrazino[1,2-a]pyrazolo[3,4-d]pyrimidin-4(2H)-one]
Second: CC(C)n1ncc2c(=O)n3c(nc21)CN(Cc1ccccc1-c1ccccc1)CC3 [Compound I-64, 8-([1,1′-Biphenyl]-2-ylmethyl)-1-isopropyl-6,7,8,9-tetrahydropyrazino[1,2-a]pyrazolo[3,4-d]pyrimidin-4(1H)-one]
The IC50 of the first is higher: > 10 µM for the first, 1 to 10 µM for the second. The second is the more potent here.

First: CC(C)n1ncc2c(=O)n3c(nc21)CN(Cc1cccc(-c2ccccc2)c1)CC3 [Compound I-65, 8-([1,1′-Biphenyl]-3-ylmethyl)-1-isopropyl-6,7,8,9-tetrahydropyrazino[1,2-a]pyrazolo[3,4-d]pyrimidin-4(1H)-one]
Second: CC(C)n1ncc2c(=O)n3c(nc21)CN(Cc1ccc(-c2ccccc2)cc1)CC3 [Compound I-66, 8-([1,1′-Biphenyl]-4-ylmethyl)-1-isopropyl-6,7,8,9-tetrahydropyrazino[1,2-a]pyrazolo[3,4-d]pyrimidin-4(1H)-one]
The IC50 of the first is lower: < 1 µM for the first, 1 to 10 µM for the second. The first is the more potent here.

`CC(C)Cn1ncc2c(=O)n3c(nc21)CN(Cc1ccccc1Cl)CC3` [Compound I-68, 8-(2-Chlorobenzyl)-1-isobutyl-6,7,8,9-tetrahydropyrazino[1,2-a]pyrazolo[3,4-d]pyrimidin-4(1H)-one] and `COc1ccccc1CN1CCn2c(nc3c(cnn3CC(C)C)c2=O)C1` [Compound I-77, 1-Isobutyl-8-(2-methoxybenzyl)-6,7,8,9-tetrahydropyrazino[1,2-a]pyrazolo[3,4-d]pyrimidin-4(1H)-one] fall in the same range of IC50: 1 to 10 µM for the first, 1 to 10 µM for the second.

`O=c1c2cnn(C3CCCC3)c2nc2n1CCN(Cc1ccccc1Cl)C2` [Compound I-69, 8-(2-Chlorobenzyl)-1-cyclopentyl-6,7,8,9-tetrahydropyrazino[1,2-a]pyrazolo[3,4-d]pyrimidin-4(1H)-one] and `COc1ccccc1CN1CCn2c(nc3c(cnn3C3CCCC3)c2=O)C1` [Compound I-78, 1-Cyclopentyl-8-(2-methoxybenzyl)-6,7,8,9-tetrahydropyrazino[1,2-a]pyrazolo[3,4-d]pyrimidin-4(1H)-one] cannot be ordered by IC50: < 1 µM for the first, < 1 µM for the second.

`CC(C)n1ncc2c(=O)n3c(nc21)CN(Cc1cccc(Cl)c1)CC3` [Compound I-70, 8-(3-Chlorobenzyl)-1-isopropyl-6,7,8,9-tetrahydropyrazino[1,2-a]pyrazolo[3,4-d]pyrimidin-4(1H)-one] and `CC(C)Cn1ncc2c(=O)n3c(nc21)CN(Cc1cccc(Cl)c1)CC3` [Compound I-71, 8-(3-Chlorobenzyl)-1-isobutyl-6,7,8,9-tetrahydropyrazino[1,2-a]pyrazolo[3,4-d]pyrimidin-4(1B)-one] cannot be ordered by IC50: < 1 µM for the first, < 1 µM for the second.

`O=c1c2cnn(C3CCCC3)c2nc2n1CCN(Cc1cccc(Cl)c1)C2` [Compound I-72, 8-(3-Chlorobenzyl)-1-cyclopentyl-6,7,8,9-tetrahydropyrazino[1,2-a]pyrazolo[3,4-d]pyrimidin-4(1H)-one] and `COc1cccc(CN2CCn3c(nc4c(cnn4C4CCCC4)c3=O)C2)c1` [Compound I-81, 1-Cyclopentyl-8-(3-methoxybenzyl)-6,7,8,9-tetrahydropyrazino[1,2-a]pyrazolo[3,4-d]pyrimidin-4(1H)-one] cannot be ordered by IC50: < 1 µM for the first, < 1 µM for the second.

`CC(C)n1ncc2c(=O)n3c(nc21)CN(Cc1ccc(Cl)cc1)CC3` [Compound I-73, 8-(4-Chlorobenzyl)-1-isopropyl-6,7,8,9-tetrahydropyrazino[1,2-a]pyrazolo[3,4-d]pyrimidin-4(1H)-one] and `CC(C)Cn1ncc2c(=O)n3c(nc21)CN(Cc1ccc(Cl)cc1)CC3` [Compound I-74, 8-(4-Chlorobenzyl)-1-isobutyl-6,7,8,9-tetrahydropyrazino[1,2-a]pyrazolo[3,4-d]pyrimidin-4(1H)-one] cannot be ordered by IC50: < 1 µM for the first, < 1 µM for the second.

`O=c1c2cnn(C3CCCC3)c2nc2n1CCN(Cc1ccc(Cl)cc1)C2` [Compound I-75, 8-(4-Chlorobenzyl)-1-cyclopentyl-6,7,8,9-tetrahydropyrazino[1,2-a]pyrazolo[3,4-d]pyrimidin-4(1H)-one] and `COc1ccc(CN2CCn3c(nc4c(cnn4C4CCCC4)c3=O)C2)cc1` [Compound I-84, 1-Cyclopentyl-8-(4-methoxybenzyl)-6,7,8,9-tetrahydropyrazino[1,2-a]pyrazolo[3,4-d]pyrimidin-4(1H)-one] cannot be ordered by IC50: < 1 µM for the first, < 1 µM for the second.

`COc1ccccc1CN1CCn2c(nc3c(cnn3C(C)C)c2=O)C1` [Compound I-76, 1-Isopropyl-8-(2-methoxybenzyl)-6,7,8,9-tetrahydropyrazino[1,2-a]pyrazolo[3,4-d]pyrimidin-4(1H)-one] and `COc1ccccc1N1CCn2c(nc3c(cnn3C(C)C)c2=O)C1` [Compound I-94, 1-Isopropyl-8-(2-methoxyphenyl)-6,7,8,9-tetrahydropyrazino[1,2-a]pyrazolo[3,4-d]pyrimidin-4(1H)-one] fall in the same range of IC50: 1 to 10 µM for the first, 1 to 10 µM for the second.

`COc1cccc(CN2CCn3c(nc4c(cnn4C(C)C)c3=O)C2)c1` [Compound I-79, 1-Isopropyl-8-(3-methoxybenzyl)-6,7,8,9-tetrahydropyrazino[1,2-a]pyrazolo[3,4-d]pyrimidin-4(1H)-one] and `COc1cccc(CN2CCn3c(nc4c(cnn4CC(C)C)c3=O)C2)c1` [Compound I-80, 1-Isobutyl-8-(3-methoxybenzyl)-6,7,8,9-tetrahydropyrazino[1,2-a]pyrazolo[3,4-d]pyrimidin-4(1H)-one] fall in the same range of IC50: 1 to 10 µM for the first, 1 to 10 µM for the second.

`COc1ccc(CN2CCn3c(nc4c(cnn4C(C)C)c3=O)C2)cc1` [Compound I-82, 1-Isopropyl-8-(4-methoxybenzyl)-6,7,8,9-tetrahydropyrazino[1,2-a]pyrazolo[3,4-d]pyrimidin-4(1H)-one] and `COc1ccc(CN2CCn3c(nc4c(cnn4CC(C)C)c3=O)C2)cc1` [Compound I-83, 1-Isobutyl-8-(4-methoxybenzyl)-6,7,8,9-tetrahydropyrazino[1,2-a]pyrazolo[3,4-d]pyrimidin-4(1H)-one] cannot be ordered by IC50: < 1 µM for the first, < 1 µM for the second.

First: CC(C)Cn1ncc2c(=O)n3c(nc21)CN(c1ccccc1Cl)CC3 [Compound I-86, 8-(2-Chlorophenyl)-1-isobutyl-6,7,8,9-tetrahydropyrazino[1,2-a]pyrazolo[3,4-d]pyrimidin-4(1H)-one]
Second: CC(C)Cn1ncc2c(=O)n3c(nc21)CN(c1cccc(Cl)c1)CC3 [Compound I-89, 8-(3-Chlorophenyl)-1-isobutyl-6,7,8,9-tetrahydropyrazino[1,2-a]pyrazolo[3,4-d]pyrimidin-4(1H)-one]
The IC50 of the first is higher: 1 to 10 µM for the first, < 1 µM for the second. The second is the more potent here.

`O=c1c2cnn(C3CCCC3)c2nc2n1CCN(c1ccccc1Cl)C2` [Compound I-87, 8-(2-Chlorophenyl)-1-cyclopentyl-6,7,8,9-tetrahydropyrazino[1,2-a]pyrazolo[3,4-d]pyrimidin-4(1H)-one] and `COc1ccccc1N1CCn2c(nc3c(cnn3C3CCCC3)c2=O)C1` [Compound I-96, 1-Cyclopentyl-8-(2-methoxyphenyl)-6,7,8,9-tetrahydropyrazino[1,2-a]pyrazolo[3,4-d]pyrimidin-4(1H)-one] fall in the same range of IC50: 1 to 10 µM for the first, 1 to 10 µM for the second.

`CC(C)n1ncc2c(=O)n3c(nc21)CN(c1cccc(Cl)c1)CC3` [Compound I-88, 8-(3-Chlorophenyl)-1-isopropyl-6,7,8,9-tetrahydropyrazino[1,2-a]pyrazolo[3,4-d]pyrimidin-4(1H)-one] and `COc1cccc(N2CCn3c(nc4c(cnn4C(C)C)c3=O)C2)c1` [Compound I-97, 1-Isopropyl-8-(3-methoxyphenyl)-6,7,8,9-tetrahydropyrazino[1,2-a]pyrazolo[3,4-d]pyrimidin-4(1H)-one] cannot be ordered by IC50: < 1 µM for the first, < 1 µM for the second.

Compared with `O=c1c2cnn(C3CCCC3)c2nc2n1CCN(c1cccc(Cl)c1)C2` [Compound I-90, 8-(3-Chlorophenyl)-1-cyclopentyl-6,7,8,9-tetrahydropyrazino[1,2-a]pyrazolo[3,4-d]pyrimidin-4(1H)-one], `O=c1c2cnn(C3CCCC3)c2nc2n1CCN(c1ccc(Cl)cc1)C2` [Compound I-93, 8-(4-Chlorophenyl)-1-cyclopentyl-6,7,8,9-tetrahydropyrazino[1,2-a]pyrazolo[3,4-d]pyrimidin-4(1H)-one] is lower in IC50: 1 to 10 µM for the first, < 1 µM for the second. The second is the more potent here.

`CC(C)n1ncc2c(=O)n3c(nc21)CN(c1ccc(Cl)cc1)CC3` [Compound I-91, 8-(4-Chlorophenyl)-1-isopropyl-6,7,8,9-tetrahydropyrazino[1,2-a]pyrazolo[3,4-d]pyrimidin-4(1H)-one] and `CC(C)Cn1ncc2c(=O)n3c(nc21)CN(c1ccc(Cl)cc1)CC3` [Compound I-92, 8-(4-Chlorophenyl)-1-isobutyl-6,7,8,9-tetrahydropyrazino[1,2-a]pyrazolo[3,4-d]pyrimidin-4(1H)-one] cannot be ordered by IC50: < 1 µM for the first, < 1 µM for the second.

For `O=c1c2cnn(C3CCCC3)c2nc2n1CCN(c1ccccc1)C2` [Compound I-95, 1-Cyclopentyl-8-phenyl-6,7,8,9-tetrahydropyrazino[1,2-a]pyrazolo[3,4-d]pyrimidin-4(1H)-one], the IC50 was < 1 µM.
